Tests used:
[1] = test system: fructose-induced hyperlipidemic rats; assay: Hypotriglyceridemic activity in fructose-induced hyperlipidemic rats; assay type: in vivo, Sprague Dawley rats; conditions: serum, 30 mg/kg p.o. once a day for 7 days, blood 2 hours after final administration; for inhibition in vivo at 30 mg/kg: Rattus norvegicus, po, read-out: Triglyceride (% Reduction)
Description: Hypotriglyceridemic Activity in Fructose-induced Hyperlipidemic Rats
The compounds were tested for a hypotriglyceridemic activity in fructose-induced hyperlipidemic rats in accordance with the method described in Nippon Yakurigaku Zasshi, 92 (3), 175-180 (1988). […] 75% fructose solution as drinking water was given to the animals for 7 days, while normal water was given to the intact groups ad libitum. During the experimental period the test compounds suspended in 3% gum arabic were given to the test group orally once a day in a daily dose of 30 mg/kg. The vehicle solution was given to the control group and the intact group. After 2 hours from the final administration, blood was collected from the abdominal aorta under ether anesthesia, and levels of total cholesterol and triglyceride in the serum were measured. The reduction rate (%) was calculated according to the following equation: [formula]
Above experimental model is well known as a model of hypertriglicemia.

[2] = test system: high cholesterol-fed hamsters; assay: Lipid lowering effects in high cholesterol-fed hamsters; assay type: in vivo, Male Syrian hamsters; conditions: serum
Description: Lipid Lowering Effects in High Cholesterol-fed Hamsters
The compounds were tested for lipid lowering effects in high cholesterol-fed hamsters in accordance with the method described in Jpn Pharmacol Ther, 23 (suppl 4), s1047-1053 (1995). Male Syrian hamsters were fed the high cholesterol diet supplemented with 1% cholesterol and 10% coconut oil for 3 weeks. Before drug administration, blood was collected from the orbital venous plexus under ether anesthesia, and a serum total cholesterol level was measured. […] The designated doses of the compound of Example 1 or Bezafibrate were administrated to test groups and the vehicle solution was given to the control group orally once a day for 7 days under the high cholesterol diet feeding. The intact group of animals were fed normal diet. After 4 hours of the final administration, blood was collected by cardiac puncture, and the total cholesterol and triglyceride levels in the serum were determined by the enzymatic method.
The reduction rate (%) was calculated according to the following equation: [formula]

mice = assay: Acute toxicity, single oral dose; assay type: in vivo; conditions: oral 2000 mg/kg, observed daily for 2 weeks
From the text: The animals were observed daily for 2 weeks after the administration.

[3] = test system: Salmonella typhimurium TA100 and TA98; assay: Mutagenicity test (reverse mutation test); assay type: cell-based; conditions: absence or presence of S9 mix
From the text: The mutagenicity of the compound of Example 1 was examined by a reverse mutation test using Salmonella typhimurium TA100 and TA98 in the absence or presence of S9 mix.

[4] = 15 mg/kg orally once a day for 7 days, minus = increase
[5] = 30 mg/kg orally once a day for 7 days, minus = increase
[6] = 60 mg/kg orally once a day for 7 days, minus = increase
[7] = 120 mg/kg orally once a day for 7 days, minus = increase
[8] = Table 4 (Example 65), 15 mg/kg p.o.

Structure (SMILES): N#CN=C1NC(=O)C(=Cc2ccc(OCc3ccccc3)cc2)S1 [Example 13, 2-(N-Cyanoimino)-5-(4-benzyloxybenzylidene)thiazolidin-4-one]
- inhibition in vivo at 30 mg/kg [1]: 55%

Structure (SMILES): CC(COc1ccc(C=C2SC(=NC#N)NC2=O)cc1)c1ccccc1 (stereo not shown) [Example 11, 2-(N-Cyanoimino)-5-[4-(2-phenylpropoxy)benzylidene]thiazolidin-4-one]
- inhibition in vivo at 30 mg/kg [1]: 62%

Structure (SMILES): N#CN=C1NC(=O)/C(=C\c2ccc(C=Cc3ccccc3)cc2)S1 [Example 1, 2-(N-Cyanoimino)-5-[(E)-4-stylylbenzylidene]thiazolidin-4-one]
- Total cholesterol (% Reduction) [2, 4]: 26%
- Triglyceride (% Reduction) [2, 4]: 60%
- Total cholesterol (% Reduction) [2, 5]: 25%
- Triglyceride (% Reduction) [2, 5]: 62%
- Total cholesterol (% Reduction) [2, 6]: 29%
- Triglyceride (% Reduction) [2, 6]: 69%
- Total cholesterol (% Reduction) [2, 7]: 41%
- Triglyceride (% Reduction) [2, 7]: 80%
- single dose toxicity: deaths (mice): no deaths were observed
- Triglyceride (% Reduction) [1]: 47%
- mutagenicity (number of revertant colonies) [3]: not mutagenic

Structure (SMILES): CC(=Cc1ccc(/C=C2/SC(=NC#N)NC2=O)cc1)c1ccccc1 [Example 4, 2-(N-Cyanoimino)-5-[(E)-4-(b-methylstylyl)benzylidene]thiazolidin-4-one]
- Triglyceride (% Reduction) [1]: 42%

Structure (SMILES): N#CN=C1NC(=O)C(=Cc2ccccc2OCCc2ccccc2)S1 [Example 21, 2-(N-Cyanoimino)-5-(2-phenethyloxybenzylidene)thiazolidin-4-one]
- inhibition in vivo at 30 mg/kg [1]: 48%

Structure (SMILES): N#CN=C1NC(=O)C(=Cc2ccc(OCc3ccc(Cl)cc3)cc2)S1 [Example 19, 2-(N-Cyanoimino)-5-[4-(4-chlorobenzyloxy)benzylidene]thiazolidin-4-one]
- inhibition in vivo at 30 mg/kg [1]: 38%

Structure (SMILES): Cc1ccc(C)c(Oc2ccc(C=C3SC(=NC#N)NC3=O)cc2)c1 [Example 9, 2-(N-Cyanoimino)-5-[4-(2,5-dimethylphenoxy)benzylidene]thiazolidin-4-one]
- Total cholesterol (% Reduction) [2, 8]: 15%
- Triglyceride (% Reduction) [2, 8]: 15%
- inhibition in vivo at 30 mg/kg [1]: 49%

Structure (SMILES): N#CN=C1NC(=O)C(=Cc2ccc(Oc3ccc(Cl)cc3)cc2)S1 [Example 6, 2-(N-Cyanoimino)-5-[4-(4-chlorophenoxy)benzylidene]thiazolidin-4-one]
- inhibition in vivo at 30 mg/kg [1]: 84%

Structure (SMILES): N#CN=C1NC(=O)C(=Cc2ccc(Oc3ccccc3)cc2)S1 [Example 22, 2-(N-Cyanoimino)-5-(4-phenoxybenzylidene)thiazolidin-4-one]
- inhibition in vivo at 30 mg/kg [1]: 65%

Structure (SMILES): CC(C)(Oc1ccc(CCNC(=O)c2ccc(Cl)cc2)cc1)C(=O)O [Bezafibrate, reference compound]
- Total cholesterol (% Reduction) [2, 5]: −5%
- Triglyceride (% Reduction) [2, 5]: −21%
- Total cholesterol (% Reduction) [2, 6]: −0%
- Triglyceride (% Reduction) [2, 6]: −18%
- Total cholesterol (% Reduction) [2, 7]: 20%
- Triglyceride (% Reduction) [2, 7]: 16%

Structure (SMILES): N#CN=C1NC(=O)C(=Cc2ccc(COCc3ccccc3)cc2)S1 [Example 3, 2-(N-Cyanoimino)-5-[4-(benzyloxymethyl)benzylidene]thiazolidin-4-one]
- Total cholesterol (% Reduction) [2, 8]: 16%
- Triglyceride (% Reduction) [2, 8]: 17%
- inhibition in vivo at 30 mg/kg [1]: 64%

Structure (SMILES): N#CN=C1NC(=O)C(=Cc2cccc(OCCc3ccccc3)c2)S1 [Example 12, 2-(N-Cyanoimino)-5-(3-phenethyloxybenzylidene)thiazolidin-4-one]
- inhibition in vivo at 30 mg/kg [1]: 59%

Structure (SMILES): N#CN=C1NC(=O)C(=Cc2ccc(Sc3ccccc3)cc2)S1 [Example 7, 2-(N-Cyanoimino)-5-(4-phenylthiobenzylidene)thiazolidin-4-one]
- Total cholesterol (% Reduction) [2, 8]: 18%
- Triglyceride (% Reduction) [2, 8]: 12%
- inhibition in vivo at 30 mg/kg [1]: 60%

Structure (SMILES): CCC(Oc1ccc(C)cc1)c1ccccc1 (stereo not shown) [Example 32]
- inhibition in vivo at 30 mg/kg [1]: 47%

Structure (SMILES): COc1ccc(C=Cc2ccc(/C=C3/SC(=NC#N)NC3=O)cc2)cc1 [Example 15, 2-(N-Cyanoimino)-5-[(E)-4-(4-methoxystylyl)benzylidene]thiazolidin-4-one]
- Total cholesterol (% Reduction) [2, 8]: 32%
- Triglyceride (% Reduction) [2, 8]: 61%
- Triglyceride (% Reduction) [1]: 47%

Structure (SMILES): N#CN=C1NC(=O)C(=Cc2ccc(-c3cc4cc(Cl)ccc4o3)cc2)S1 [Example 14, 2-(N-Cyanoimino)-5-[4-(5-chlorobenzofuran-2-yl)benzylidene]thiazolidin-4-one]
- Total cholesterol (% Reduction) [2, 8]: 11%
- Triglyceride (% Reduction) [2, 8]: 24%
- inhibition in vivo at 30 mg/kg [1]: 36%

Structure (SMILES): N#CN=C1NC(=O)C(=Cc2cccc(Oc3ccccc3)c2)S1 [Example 16, 2-(N-Cyanoimino)-5-(3-phenoxybenzylidene)thiazolidin-4-one]
- inhibition in vivo at 30 mg/kg [1]: 54%

Structure (SMILES): N#CN=C1NC(=O)/C(=C\c2ccc(C=Cc3ccccc3F)cc2)S1 [Example 8, 2-(N-Cyanoimino)-5-[(E)-4-(2-fluorostylyl)benzylidene]thiazolidin-4-one]
- Triglyceride (% Reduction) [1]: 47%

Structure (SMILES): N#CN=C1NC(=O)C(=Cc2ccc(OCCc3ccccc3)cc2)S1 [Example 10, 2-(N-Cyanoimino)-5-(4-phenethyloxybenzylidene)thiazolidin-4-one]
- single dose toxicity: deaths (mice): no deaths were observed
- inhibition in vivo at 30 mg/kg [1]: 39%

Structure (SMILES): CC(=Cc1ccccc1)c1ccc(/C=C2/SC(=NC#N)NC2=O)cc1 [Example 2, 2-(N-Cyanoimino)-5-[(E)-4-(a-methylstylyl)benzylidene]thiazolidin-4-one]
- Total cholesterol (% Reduction) [2, 8]: 27%
- Triglyceride (% Reduction) [2, 8]: 57%
- Triglyceride (% Reduction) [1]: 67%

Structure (SMILES): N#CN=C1NC(=O)C(=Cc2ccc(OCc3ccc4c(c3)OCO4)cc2)S1 [Example 17, 2-(N-Cyanoimino)-5-[4-(1,3-benzodioxol-5-ylmethoxy)benzylidene]thiazolidin-4-one]
- inhibition in vivo at 30 mg/kg [1]: 37%

From patent US6380229B1, “2-(N-cyanoimino)thiazolidin-4-one derivatives” (Fujimoto Co., Ltd., priority 2001, dated 2002)
